Test results reported in patent EP4483954A1 (Masarykova Univerzita, priority 2023, dated 2025).

Key:
Format in all cases: biochemical
[1] = target: T1, PIM1 (h) (Homo sapiens, UniProt P11309); test: radiometric kinase assay (KinaseProfiler, Eurofins), PIM1; conditions: in vitro radiometric kinase assay, tested at 1 nM to 10 000 nM, no pre-incubation; read-out: inhibitory activities (IC50 values) PIM1
T1 construct: purchased Eurofins (KinaseProfiler)
Method: (§1) The compounds were profiled in the radiometric assays (KinaseProfiler, Eurofins).
(§2) Briefly, kinases were diluted in the buffer shown below prior to addition to the reaction mix: • CDKL3, TAF1L: 20 mM Tris/HCl pH 8.5, 0.2 mM EDTA, 0.1% β-mercaptoethanol, 0.01% Brij-35, 5% glycerol, 1 mg/ml BSA; • Haspin: 15 mM MOPS, 0.75 mM EDTA, 0.0075% Brij-35, 3.75% Glycerol, 150 mM NaCl, 0.1% β-mercaptoethanol, 1 mg/mLBSA; • CDKL4, CLK2, PIM1, TRB2: […], 1 mM EDTA, 0.01% Brij-35, 5% Glycerol, 0.1% β-mercaptoethanol, 1 mg/mL BSA.
(§3) All compounds were prepared to 50x final assay concentration in 100% DMSO. This working stock of the compound was added to the assay well as the first component in the reaction, followed by the remaining components as detailed in the general assay protocols below. There was no pre-incubation step between the compound and the kinase prior to initiation of the reaction.
(§4) PIM1 (h) was incubated with 8 mM MOPS pH 7.0, 0.2 mM EDTA, 100 µM KKRNRTLTV (SEQ ID NO. 4), 10 mM magnesium acetate and γ-^33P-ATP (specific activity and concentration as required). The reaction was initiated by the addition of the Mg/ATP mix. After incubation for 40 minutes at room temperature, the reaction was stopped by the addition of phosphoric acid to a concentration of 0.5%. An aliquot of the reaction was then spotted onto a filter and washed four times for 4 minutes in 0.425% phosphoric acid and once in methanol prior to drying and scintillation counting.
(§5) Kinase activity data were expressed as the percent remaining kinase activity in tested samples compared to the vehicle (DMSO) reactions. The compounds were tested at the following concentrations: 1 nM, 3 nM, 10 nM, 30 nM, 100 nM, 300 nM, 1000 nM, 3000 nM, and 10 000 nM; IC50 values and curve fits were then obtained.

[2] = target: T2, DYRK2 (h) (Homo sapiens, UniProt Q92630); test: radiometric kinase assay (KinaseProfiler, Eurofins), DYRK2; conditions: in vitro radiometric kinase assay, tested at 1 nM to 10 000 nM, no pre-incubation; read-out: inhibitory activities (IC50 values) DYRK2
T2 construct: purchased Eurofins (KinaseProfiler)
T2 sequence (Q92630 1-601): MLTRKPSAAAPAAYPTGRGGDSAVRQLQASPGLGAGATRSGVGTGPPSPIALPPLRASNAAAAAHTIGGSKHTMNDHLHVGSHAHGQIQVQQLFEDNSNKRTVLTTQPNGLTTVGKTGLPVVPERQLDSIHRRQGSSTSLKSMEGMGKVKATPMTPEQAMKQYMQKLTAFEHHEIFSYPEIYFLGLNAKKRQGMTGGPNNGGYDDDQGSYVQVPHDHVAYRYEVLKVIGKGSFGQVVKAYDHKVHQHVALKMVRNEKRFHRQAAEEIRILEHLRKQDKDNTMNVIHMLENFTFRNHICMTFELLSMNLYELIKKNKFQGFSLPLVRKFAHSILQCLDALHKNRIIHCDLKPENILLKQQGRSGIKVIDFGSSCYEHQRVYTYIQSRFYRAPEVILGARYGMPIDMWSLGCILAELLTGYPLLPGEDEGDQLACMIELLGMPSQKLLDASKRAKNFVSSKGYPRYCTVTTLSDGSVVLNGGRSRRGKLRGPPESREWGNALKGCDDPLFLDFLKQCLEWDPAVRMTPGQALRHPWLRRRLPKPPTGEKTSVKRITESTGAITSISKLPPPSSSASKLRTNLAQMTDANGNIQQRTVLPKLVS
Method: as §1, §3
as §4, with “DYRK2” for “PIM1”, “2 mg/mL casein,” for “100 µM KKRNRTLTV (SEQ ID NO. 4),”
as §5

[3] = target: T3, CLK2 (h) (Homo sapiens, UniProt P49760); test: radiometric kinase assay (KinaseProfiler, Eurofins), CLK2; conditions: in vitro radiometric kinase assay, tested at 1 nM to 10 000 nM, no pre-incubation; read-out: inhibitory activities (IC50 values) CLK2
T3 construct: purchased Eurofins (KinaseProfiler)
T3 sequence (P49760 whole entry): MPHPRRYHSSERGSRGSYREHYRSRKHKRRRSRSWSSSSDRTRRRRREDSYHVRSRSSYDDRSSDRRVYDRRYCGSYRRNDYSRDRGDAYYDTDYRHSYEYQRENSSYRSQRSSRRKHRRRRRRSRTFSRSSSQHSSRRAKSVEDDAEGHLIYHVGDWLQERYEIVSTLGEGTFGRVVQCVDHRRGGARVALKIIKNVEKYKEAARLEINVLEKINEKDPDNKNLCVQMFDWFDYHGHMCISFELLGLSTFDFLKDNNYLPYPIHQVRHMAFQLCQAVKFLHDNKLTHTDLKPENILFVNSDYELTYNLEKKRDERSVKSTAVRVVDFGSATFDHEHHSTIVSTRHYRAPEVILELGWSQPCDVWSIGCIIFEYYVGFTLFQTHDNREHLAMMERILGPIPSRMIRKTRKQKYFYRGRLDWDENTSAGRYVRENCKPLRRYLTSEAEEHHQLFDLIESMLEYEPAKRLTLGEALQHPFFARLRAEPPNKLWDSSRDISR
Method: as §1, §2, §3
as §4, with “CLK2” for “PIM1”, “20” for “100”, “[…](p)EDEEE” for “KKRNRTLTV”, “2),” for “4),”
as §5

[4] = target: T4, CDKL4(h) (Homo sapiens, UniProt Q5MAI5); test: radiometric kinase assay (KinaseProfiler, Eurofins), CDKL4; conditions: in vitro radiometric kinase assay, tested at 1 nM to 10 000 nM, no pre-incubation; read-out: inhibitory activities (IC50 values) CDKL4
T4 construct: purchased Eurofins (KinaseProfiler)
T4 sequence (Q5MAI5 whole entry): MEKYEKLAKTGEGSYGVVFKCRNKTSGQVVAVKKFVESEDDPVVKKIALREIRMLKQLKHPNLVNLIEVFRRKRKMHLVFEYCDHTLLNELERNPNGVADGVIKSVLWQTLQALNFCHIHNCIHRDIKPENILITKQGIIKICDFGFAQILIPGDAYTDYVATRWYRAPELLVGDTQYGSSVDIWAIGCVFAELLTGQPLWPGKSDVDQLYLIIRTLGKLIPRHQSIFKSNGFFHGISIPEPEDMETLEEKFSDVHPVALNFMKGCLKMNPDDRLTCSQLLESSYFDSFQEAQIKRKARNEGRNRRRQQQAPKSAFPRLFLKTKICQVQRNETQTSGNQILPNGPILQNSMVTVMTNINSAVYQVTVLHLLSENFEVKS
Method: as §1, §2, §3
(§6) CDKL4(h) was incubated with 8 mM MOPS pH 7.0, 0.2 mM EDTA, 250 µM RRRFRPASPLRGPPK (SEQ ID NO. 1), 10 mM magnesium acetate and γ-^33P-ATP (specific activity and concentration as required). The reaction was initiated by the addition of the Mg/ATP mix. After incubation for 120 minutes at room temperature, the reaction was stopped by the addition of phosphoric acid to a concentration of 0.5%. An aliquot of the stopped reaction was spotted onto a filter and washed four times for 4 minutes in 0.425% phosphoric acid and once in methanol prior to drying and scintillation counting.
as §5

[5] = target: T5, TAF1L(h) (Homo sapiens, UniProt Q8IZX4); test: radiometric kinase assay (KinaseProfiler, Eurofins), TAF1L; conditions: in vitro radiometric kinase assay, tested at 1 nM to 10 000 nM, no pre-incubation; read-out: inhibitory activities (IC50 values) TAF1L
T5 construct: purchased Eurofins (KinaseProfiler)
T5 sequence (Q8IZX4 whole entry): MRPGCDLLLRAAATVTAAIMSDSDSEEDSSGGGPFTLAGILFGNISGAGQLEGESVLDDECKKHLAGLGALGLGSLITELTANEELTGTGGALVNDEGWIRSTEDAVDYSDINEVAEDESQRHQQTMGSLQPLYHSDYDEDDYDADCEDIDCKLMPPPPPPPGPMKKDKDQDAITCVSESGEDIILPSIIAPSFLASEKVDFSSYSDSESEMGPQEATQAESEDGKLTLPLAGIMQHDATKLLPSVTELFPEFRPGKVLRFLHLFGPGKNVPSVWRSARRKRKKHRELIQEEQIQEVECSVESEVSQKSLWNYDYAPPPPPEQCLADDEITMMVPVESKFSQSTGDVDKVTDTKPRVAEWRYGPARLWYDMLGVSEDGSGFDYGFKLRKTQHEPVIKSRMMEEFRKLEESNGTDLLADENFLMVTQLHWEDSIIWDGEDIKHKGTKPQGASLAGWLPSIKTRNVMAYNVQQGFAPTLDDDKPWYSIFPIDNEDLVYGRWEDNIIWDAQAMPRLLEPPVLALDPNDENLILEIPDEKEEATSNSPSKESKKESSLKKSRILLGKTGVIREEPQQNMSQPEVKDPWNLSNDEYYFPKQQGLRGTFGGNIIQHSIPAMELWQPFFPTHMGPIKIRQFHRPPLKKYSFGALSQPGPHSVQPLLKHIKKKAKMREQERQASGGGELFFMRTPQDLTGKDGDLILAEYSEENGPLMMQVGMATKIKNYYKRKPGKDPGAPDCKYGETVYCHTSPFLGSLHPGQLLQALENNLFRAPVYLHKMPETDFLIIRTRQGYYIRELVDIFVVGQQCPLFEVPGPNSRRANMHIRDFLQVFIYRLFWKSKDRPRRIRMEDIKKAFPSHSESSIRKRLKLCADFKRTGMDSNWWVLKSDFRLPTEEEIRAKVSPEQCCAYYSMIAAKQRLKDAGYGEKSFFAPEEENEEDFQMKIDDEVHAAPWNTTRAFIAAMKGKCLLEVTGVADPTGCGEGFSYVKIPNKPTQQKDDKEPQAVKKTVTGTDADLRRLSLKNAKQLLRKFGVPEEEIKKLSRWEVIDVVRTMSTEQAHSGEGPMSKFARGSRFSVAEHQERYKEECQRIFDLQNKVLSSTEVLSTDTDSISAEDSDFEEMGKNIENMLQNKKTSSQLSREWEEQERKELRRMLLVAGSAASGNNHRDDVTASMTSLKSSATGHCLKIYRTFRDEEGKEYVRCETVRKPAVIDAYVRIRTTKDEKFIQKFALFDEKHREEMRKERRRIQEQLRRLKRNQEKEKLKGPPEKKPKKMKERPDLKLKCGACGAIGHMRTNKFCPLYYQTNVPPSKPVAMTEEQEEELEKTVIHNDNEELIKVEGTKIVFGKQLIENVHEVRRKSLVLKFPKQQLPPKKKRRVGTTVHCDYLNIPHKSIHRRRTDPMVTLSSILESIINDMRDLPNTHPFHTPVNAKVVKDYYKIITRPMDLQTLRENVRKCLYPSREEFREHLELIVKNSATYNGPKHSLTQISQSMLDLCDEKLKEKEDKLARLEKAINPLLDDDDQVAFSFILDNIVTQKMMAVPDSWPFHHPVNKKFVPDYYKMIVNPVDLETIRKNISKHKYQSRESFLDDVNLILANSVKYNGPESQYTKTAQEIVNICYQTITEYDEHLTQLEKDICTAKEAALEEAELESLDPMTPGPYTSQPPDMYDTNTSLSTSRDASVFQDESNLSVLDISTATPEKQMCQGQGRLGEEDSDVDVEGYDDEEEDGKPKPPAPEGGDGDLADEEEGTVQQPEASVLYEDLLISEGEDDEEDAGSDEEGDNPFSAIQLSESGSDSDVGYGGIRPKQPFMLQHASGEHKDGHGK
Method: as §1, §2, §3
as §6, with “TAF1L(h)” for “CDKL4(h)”, “20” for “8”, “Tris/HCl” for “MOPS”, “8.5,” for “7.0,”
as §5

T1 sequence (P11309 whole entry): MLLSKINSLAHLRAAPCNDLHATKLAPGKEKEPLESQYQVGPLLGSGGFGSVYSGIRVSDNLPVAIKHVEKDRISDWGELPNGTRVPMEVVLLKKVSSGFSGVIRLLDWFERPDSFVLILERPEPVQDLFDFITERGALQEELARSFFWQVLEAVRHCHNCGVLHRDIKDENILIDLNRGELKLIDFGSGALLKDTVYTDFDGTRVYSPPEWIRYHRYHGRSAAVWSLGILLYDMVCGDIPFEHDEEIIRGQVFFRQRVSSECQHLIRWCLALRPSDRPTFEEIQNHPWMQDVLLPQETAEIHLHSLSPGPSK

SMILES | IC50 [1] | IC50 [2] | IC50 [3] | IC50 [4] | IC50 [5]
Cc1sc2ccc(-c3cnn(C)c3)nc2c1-c1ccncc1 [Preparative Example 142, 2-methyl-5-(1-methyl-1H-pyrazol-4-yl)-3-(pyridin-4-yl)thieno[3,2-b]pyridine] | 3000 to 10000 nM | 500 to 3000 nM | 3000 to 10000 nM | 500 to 3000 nM | 500 to 3000 nM
Cn1cc(-c2ccc3scc(-c4ccncc4)c3n2)c(NC(=O)OC(C)(C)C)n1 [Preparative Example 83, tert-butyl(1-methyl-4-(3-(pyridin-4-yl)thieno[3,2-b]pyridin-5-yl)-1H-pyrazol-3-yl)carbamate] | 3000 to 10000 nM | 3000 to 10000 nM | 3000 to 10000 nM | 500 to 3000 nM | 500 to 3000 nM
Cn1cc(-c2ccc3scc(C(=O)c4ccccc4)c3n2)cn1 [Preparative Example 73, (5-(1-methyl-1H-pyrazol-4-yl)thieno[3,2-b]pyridin-3-yl)(phenyl)-methanone] | 3000 to 10000 nM | 3000 to 10000 nM | 3000 to 10000 nM | 3000 to 10000 nM | 3000 to 10000 nM
Cc1nn(C)c(C)c1-c1ccc2scc(-c3ccncc3)c2n1 [Preparative Example 85, 3-(pyridin-4-yl)-5-(1,3,5-trimethyl-1H-pyrazol-4-yl)thieno[3,2-b]pyridine] | 3000 to 10000 nM | 3000 to 10000 nM | 3000 to 10000 nM | 500 to 3000 nM | 500 to 3000 nM
Cc1cc2scc(-c3ccncc3)c2nc1-c1ccn(C)n1 [Preparative Example 151, 6-methyl-5-(1-methyl-1H-pyrazol-3-yl)-3-(pyridin-4-yl)thieno[3,2-b]pyridine] | 3000 to 10000 nM | 3000 to 10000 nM | 3000 to 10000 nM | 3000 to 10000 nM | 3000 to 10000 nM
Cn1cc(-c2ccc3scc(C4=CCNCC4)c3n2)cn1 [Preparative Example 9, 5-(1-methyl-1H-pyrazol-4-yl)-3-(1,2,3,6-tetrahydropyridin-4-yl)-thieno[3.2-b]pyridine] | 500 to 3000 nM | 3000 to 10000 nM | 3000 to 10000 nM | 500 to 3000 nM | 500 to 3000 nM
Cn1ccc(-c2cc(Cl)c3scc(-c4ccncc4)c3n2)n1 [Preparative Example 163, 7-chloro-5-(1-methyl-1H-pyrazol-3-yl)-3-(pyridin-4-yl)thieno[3,2-b]pyridine] | 3000 to 10000 nM | 3000 to 10000 nM | 3000 to 10000 nM | 500 to 3000 nM | 500 to 3000 nM

Further lines, results first:

IC50 [1] | IC50 [2] | IC50 [3] | IC50 [4] | IC50 [5] | SMILES
100 to 499 nM | 500 to 3000 nM | 500 to 3000 nM | 100 to 499 nM | 100 to 499 nM | Cn1cc(-c2ccc3scc(-c4ccncc4F)c3n2)cn1 [Preparative Example 36, 3-(3-fluoropyridin-4-yl)-5-(1-methyl-1H-pyrazol-4-yl)thieno[3,2-b]pyridine]
100 to 499 nM | 100 to 499 nM | 3000 to 10000 nM | 500 to 3000 nM | 500 to 3000 nM | Cn1cc(-c2ccc3scc(-c4ccnc(CN)c4)c3n2)cn1 [Preparative Example 28, (4-(5-(1-methyl-1H-pyrazol-4-yl)thieno[3,2-b]pyridin-3-yl)pyridin-2-yl)methanamine]
100 to 499 nM | 500 to 3000 nM | 3000 to 10000 nM | 100 to 499 nM | 100 to 499 nM | Cn1cc(-c2ccc3scc(-c4ccnc(F)c4)c3n2)cn1 [Preparative Example 22, 3-(2-fluoropyridin-4-yl)-5-(1-methyl-1H-pyrazol-4-yl)thieno[3,2-b]pyridine]
100 to 499 nM | 100 to 499 nM | 500 to 3000 nM | 100 to 499 nM | 100 to 499 nM | Cc1nsc(-c2csc3ccc(-c4cnn(C)c4)nc23)n1 [Preparative Example 71, 3-(3-methyl-1,2,4-thiadiazol-5-yl)-5-(1-methyl-1H-pyrazol-4-yl)thieno[3,2-b]pyridine]
100 to 499 nM | 3000 to 10000 nM | 3000 to 10000 nM | 500 to 3000 nM | 500 to 3000 nM | c1ccc(Cn2cc(-c3ccc4scc(-c5ccncc5)c4n3)cn2)cc1 [Preparative Example 81, 5-(1-benzyl-1H-pyrazol-4-yl)-3-(pyridin-4-yl)thieno[3,2-b]pyridine]
100 to 499 nM | 100 to 499 nM | 500 to 3000 nM | 20 to 99 nM | 20 to 99 nM | Cn1cc(-c2ccc3scc(-c4ccns4)c3n2)cn1 [Preparative Example 67, 3-(isothiazol-5-yl)-5-(1-methyl-1H-pyrazol-4-yl)thieno[3,2-b]pyridine]
100 to 499 nM | 100 to 499 nM | 500 to 3000 nM | 20 to 99 nM | 20 to 99 nM | Cn1cc(-c2ccc3scc(Nc4ccccc4)c3n2)cn1 [Preparative Example 76, 5-(1-methyl-1H-pyrazol-4-yl)-N-phenylthieno[3,2-b]pyridin-3-amine]
500 to 3000 nM | 3000 to 10000 nM | 3000 to 10000 nM | 500 to 3000 nM | 500 to 3000 nM | Cc1cnccc1-c1csc2ccc(-c3cnn(C)c3)nc12 [Preparative Example 32, 5-(1-methyl-1H-pyrazol-4-yl)-3-(3-methylpyridin-4-yl)thieno[3,2-b]pyridine]
